Results as given in US20050244335A1, “Methods and compositions related to increasing antitumor activity of chemotherapeutic agents” (priority 2004, published 2005).

Key:
[1] = system: CD-1 mice; assay type: in vivo; conditions: CD-1 mice
Protocol: Male CD-1 mice, randomly divided into multiple treatment and control groups (10 mice/group), were given DEX by subcutaneous (s.c.) injection at doses of 0.01, 0.05, 0.1, 0.3 mg/mouse/day or saline (as controls) for 5 days prior to (day −4 to 0) or after (day 0 to 4) a single intraperitoneal (i.p.) injection of carboplatin (600 mg/m^2 or 200 mg/kg) on day 0. Animals were monitored daily for activity, physical condition, body weight and 14-day survival rates.
The significance of the differences among treated groups and controls were analyzed by ANOVA.

[2] = system: human breast cancer MDA-MB-468 xenografts; experiment: In vivo chemotherapy, breast cancer MDA-MB-468 xenograft model in nude mice; conditions: MDA-MB-468 model; agent alone
Excerpt: Cell Culture. […] All media contained 1% penicillin-streptomycin.
(§1) Data and Statistical Analysis.

[3] = Pharmacokinetics of carboplatin in nude mice bearing A549 xenografts; assay type: in vivo; conditions: for AUC / CL / Cmax / T1/2 / Vss: nude mice bearing A549 xenografts, carboplatin 60 mg/kg iv
Protocol: Pharmacokinetics and Tissue Distribution of Carboplatin. Pharmacokinetic studies were carried out using a protocol similar to that previously described (26) using metabolism cages. Female nude mice bearing human colon cancer LS174T xenografts or human lung cancer A549 xenografts were used (3 animals for each time point). Animals were pre-treated with DEX (s.c., 0.1 mg/day/mouse for 5 days) or saline (as controls) and, at 1 hr after the fifth dose of DEX, were given a single intravenously (i.v.) bolus administration of carboplatin (60 mg/kg) via a tail vein. At various times (5, 15, and 30 min, 1, 2, 4, 8, and 24 hr after carboplatin dosing), blood samples were collected in heparinized tubes and tissue samples removed. Plasma was separated by centrifugation at 20,000 g for 5 min. Tissues including liver, kidneys, spleen, and tumor were taken at various times and immediately blotted on Whatman No. 1 filter paper, trimmed of extraneous fat or connective tissue, weighed, and homogenized in 0.9% NaCl physiological saline (5 mL per gram of wet weight). The resultant homogenates were stored at −70° C. until further analysis. Bone marrow cells were harvested by flushing the femurs with sterile physiological saline as reported previously (30). Briefly, after removing the distal and proximal ends of femur, each end of the bone was punctured with a 20-gauge needle fitted with a 5 mL syringe containing 1 mL of sterile physiological saline (pre-weighed). The bone was then held with a forceps over a test tube and the needle was inserted into the hole in the proximal end. The 1 mL saline was flushed through the bone into the tube by applying gentle, steady pressure to the plunger. The syringe was then filled with 5 ml of air that was gently forced through the bone to remove the remaining saline and bone marrow in the shaft. The resultant bone marrow cell suspension was weighed and lysed by sonicating 5 times for periods of 10 sec. Following centrifugation at 20,000 g for 30 min, the supernatant was removed and stored at −70° C. until further analysis.
HPLC Analysis of Carboplatin in Plasma and Tissues. Carboplatin in biological samples was analyzed by an analytical procedure involving micro-filtration and reversed-phase HPLC (31). 200 μL of plasma or tissue homogenates or bone marrow suspension was added to the reservoir of a Centrifree™ micropartition system. The latter was capped and centrifuged at 2,000 g for 5 min. All filtrates were transferred into a new micro centrifuge tube and 6 μL of the filtrates was injected onto the HPLC column. The HPLC system consisted of a Hewlett Packard 1050 ChemStation with a UV detector (Agilent 1050 series). Determination of Carboplatin was achieved using a LiChrosorb™ diol (10 μm, 250×4.6 mm) analytical column with a LiChroCART 100 RP-18 guard column. The mobile phase for plasma was composed of 98:2 acetonitrile:H2O (vol/vol) and 89:11 acetonitrile: 0.015% H3PO4 (vol/vol) for urine and tissue samples. The flow rates were 2 mL/min (for plasma) and 1.1 mL/min (for urine and tissue samples). The column elute was monitored by UV at 229 nm. Quantitation of plasma or tissue carboplatin was carried out by using an external standard curve (0-4,000.0 μg/mL) that was freshly prepared on a daily basis. Linear regression and correlation analysis were carried out to establish the standard peak-area/concentration curves for carboplatin.
as §1

With N.N.O=C([O-])C1(C(=O)[O-])CCC1.[Pt+2] [carboplatin] the survival rate ([1]; carboplatin 600 mg/m^2 (200 mg/kg) i.p. alone (carboplatin controls), 14-day) was 10%, the mortality rate ([1]; single i.p. dose of carboplatin alone 600 mg/m^2 (200 mg/kg)) was 90% and the “effect on tumor growth” value [2] was “no effects on tumor growth”. The “increase in tumor AUC by DEX pretreatment” value ([3]; A549 nude mice) was 50%, the AUC ([3]; bone marrow, DEX (+)) was 517210 ng·h/mL and the CL ([3]; bone marrow, DEX (+)) was 0.01 mL/g/h. It also gave a Cmax ([3]; bone marrow, DEX (+)) of 27290 ng/mL, a T1/2 ([3]; bone marrow, DEX (+)) of 30 min and a Vss ([3]; bone marrow, DEX (+)) of 2.72 mL/g. The AUC ([3]; bone marrow, DEX (−)) was 641040 ng·h/mL, the CL ([3]; bone marrow, DEX (−)) was 0.01 mL/g/h and the Cmax ([3]; bone marrow, DEX (−)) was 32580 ng/mL. The T1/2 ([3]; bone marrow, DEX (−)) was 30 min, the Vss ([3]; bone marrow, DEX (−)) was 1.97 mL/g and the AUC ([3]; liver, DEX (+)) was 21680 ng·h/mL. The CL ([3]; liver, DEX (+)) was 4.79 mL/g/h, the Cmax ([3]; liver, DEX (+)) was 5910 ng/mL and the T1/2 ([3]; liver, DEX (+)) was 60 min. It also gave a Vss ([3]; liver, DEX (+)) of 9.05 mL/g, an AUC ([3]; liver, DEX (−)) of 26320 ng·h/mL and a CL ([3]; liver, DEX (−)) of 3.99 mL/g/h. It also gave a Cmax ([3]; liver, DEX (−)) of 7000 ng/mL, a T1/2 ([3]; liver, DEX (−)) of 60 min and a Vss ([3]; liver, DEX (−)) of 8.31 mL/g. For the same compound, the AUC ([3]; plasma, DEX (+)) was 66080 ng·h/mL, the CL ([3]; plasma, DEX (+)) was 0.91 mL/g/h and the Cmax ([3]; plasma, DEX (+)) was 411890 ng/mL. The T1/2 ([3]; plasma, DEX (+)) was 6.6 min, the Vss ([3]; plasma, DEX (+)) was 0.15 mL/g and the AUC ([3]; plasma, DEX (−)) was 55220 ng·h/mL. The CL ([3]; plasma, DEX (−)) was 1.09 mL/g/h, the Cmax ([3]; plasma, DEX (−)) was 357340 ng/mL and the T1/2 ([3]; plasma, DEX (−)) was 6.6 min. For the same compound, the Vss ([3]; plasma, DEX (−)) was 0.17 mL/g, the AUC ([3]; spleen, DEX (+)) was 75590 ng·h/mL and the CL ([3]; spleen, DEX (+)) was 0.79 mL/g/h. It also gave a Cmax ([3]; spleen, DEX (+)) of 482140 ng/mL, a T1/2 ([3]; spleen, DEX (+)) of 6.6 min and a Vss ([3]; spleen, DEX (+)) of 0.12 mL/g. The AUC ([3]; spleen, DEX (−)) was 359440 ng·h/mL, the CL ([3]; spleen, DEX (−)) was 0.17 mL/g/h and the Cmax ([3]; spleen, DEX (−)) was 341990 ng/mL. The T1/2 ([3]; spleen, DEX (−)) was 43.8 min, the Vss ([3]; spleen, DEX (−)) was 0.18 mL/g and the AUC ([3]; tumor, DEX (+)) was 15480 ng·h/mL. The CL ([3]; tumor, DEX (+)) was 3.88 mL/g/h, the Cmax ([3]; tumor, DEX (+)) was 64090 ng/mL and the T1/2 ([3]; tumor, DEX (+)) was 10.2 min. For the same compound, the Vss ([3]; tumor, DEX (+)) was 0.94 mL/g, the AUC ([3]; tumor, DEX (−)) was 10160 ng·h/mL and the CL ([3]; tumor, DEX (−)) was 5.90 mL/g/h. It also gave a Cmax ([3]; tumor, DEX (−)) of 32150 ng/mL, a T1/2 ([3]; tumor, DEX (−)) of 13.2 min and a Vss ([3]; tumor, DEX (−)) of 1.87 mL/g.
